Laboratory results taken from patent US20030232986A1, “Inhibitors of caspases” (Vertex Pharmaceuticals Incorporated, priority 1998, published 2003).

Assays:
[1] = In vivo rat clearance assay (i.v.); details: plasma, iv, i.v. via jugular vein
Experimental: Cannulations of the jugular and carotid vessels of rats under anesthesia are performed one day prior to the pharmacokinetic study. M. J. Free, R. A. Jaffee; ‘Cannulation techniques for the collection blood and other bodily fluids’; in: Animal Models; p. 480-495; N. J. Alexander, Ed.; Academic Press; (1978). Drug (10 mg/mL) is administered via the jugular vein in a vehicle usually consisting of: propylene glycol/saline, containing 100 mM sodium bicarbonate in a 1:1 ratio. Animals are dosed with 10-20 mg drug/kg and blood samples are drawn at 0, 2, 5, 7, 10, 15, 20, 30, 60, and 90 minutes from an indwelling carotid catheter. The blood is centrifuged to plasma and stored at −20° C. until analysis. Pharmacokinetic analysis of data is performed by non-linear regression using standard software such as RStrip (MicroMath Software, UT) and/or Pcnonlin (SCI Software, NC) to obtain clearance values.
Rat plasma is extracted with an equal volume of acetonitrile (containing 0.1% TFA). Samples are then centrifuged at approximately 1,000×g and the supernatant analyzed by gradient HPLC. A typical assay procedure is described below.
200 μL of plasma is precipitated with 200 μL of 0.1% trifluoroacetic acid (TFA) in acetonitrile and 10 μL of a 50% aqueous zinc chloride solution, vortexed then centrifuged at ^˜1000×g and the supernatant collected and analyzed by HPLC.
A standard curve is run at 20, 10, 5, 2 and 1 μg/mL concentrations.

[2] = target: T1, Caspase-4 (Homo sapiens, UniProt P49662); assay: Caspase-4 enzyme inhibition (Ki); assay type: biochemical; details: substrate Ac-WEHD-AMC 20 μM, 37° C.
T1 sequence (P49662 81-270 limits assumed): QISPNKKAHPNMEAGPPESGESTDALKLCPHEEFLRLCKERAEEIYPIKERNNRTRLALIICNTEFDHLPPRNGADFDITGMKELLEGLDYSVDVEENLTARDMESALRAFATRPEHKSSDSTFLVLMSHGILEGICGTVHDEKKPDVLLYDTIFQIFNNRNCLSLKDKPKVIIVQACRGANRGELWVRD
T1 sequence (P49662 290-377 limits assumed): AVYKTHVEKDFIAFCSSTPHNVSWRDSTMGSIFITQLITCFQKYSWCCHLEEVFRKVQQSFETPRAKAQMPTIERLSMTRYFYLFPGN
Experimental: Ki values for test compounds with the various caspases were obtained by the method of Margolin et al. (J. Biol. Chem., 272 pp. 7223-7228 (1997)). Assays were performed in 10 mM Tris (Sigma Corp, St Louis Mo.) pH 7.5, 1 mM Dithiothreitol (DTT, Research Organic INC, Cleveland, Ohio) and 0.1% CHAPS (Pierce, Rockford Ill.) at 37° C. For caspase-3, a solution of 8% glycerol was added to the assay buffer to improve enzyme stability. A 65 μL aliquot of the assay buffer and 5 μL aliquot of the appropriate dilutions of inhibitor in DMSO where pipetted into a 96 well plate, treated with 10 μL of caspase, then diluted in assay buffer (0.5-40 nM active protein by active site titration). A control containing DMSO but no compound was included for each determination. The plates were then incubated for 15 minutes at 37° C., before addition of the appropriate substrate (20 μL, final concentration 1-4×KM, final assay volume 100 μL) to initiate the reaction. Reaction rates were measured at 37° C. either by following the time dependant increase in absorbance at 405 nm (for the pNA substrates) or in fluorescence (Ex 390, Em 460) (for the AMC substrates). The rates obtained were plotted against inhibitor concentration and the data fit to the Morrison tight-binding equation for competitive inhibitors (Morrison, J. F., Biochem. Biophys. Acta, 185 pp. 269-286 (1969)). […]

clearance [1] [mL/min/kg]	Ki [2] [nM]	Compound
< 50	–	C[C@H](NC(=O)c1nccc2ccccc12)C(=O)N1CCC[C@H]1C(=O)N[C@H](C=O)CC(=O)O [Example 7d]
50 to 80	–	COc1ccc(C(=O)N[C@@H](C)C(=O)N2CCC[C@H]2C(=O)N[C@H](C=O)CC(=O)O)cc1 [Example 7f]
50 to 80	–	CS(=O)(=O)CC[C@H](NC(=O)c1nccc2ccccc12)C(=O)N1CCC[C@H]1C(=O)N[C@H](C=O)CC(=O)O [Example 20h]
< 50	–	CC[C@H](NC(=O)c1cc(Cl)c(O)c(Cl)c1)C(=O)N1CCC[C@H]1C(=O)N[C@H](C=O)CC(=O)O [Example 20m]
> 80	–	Cc1cc(C(=O)N[C@H](C(=O)N2CCCC2C(=O)N[C@H](C=O)CC(=O)O)C(C)C)cc(C)c1O (stereo partly drawn) [Example 65, 3-({l-[2-(4-Hydroxy-3,5-dimethyl-benzoyiamino)-3-methyl-butyryl]-pyrrolidine-2-carbonyl}-amino)-4-oxo-butyric acid]
50 to 80	< 10	C[C@H](NC(=O)c1ccc(N)c(Cl)c1)C(=O)N1CCC[C@H]1C(=O)N[C@H](C=O)CC(=O)O [Example 122b, 3-({-[2-(4-Amino-3-chloro-benzoylamino)-propionyl]-pyrrolidine-2-carbonyl}-amino)-4-oxo-butyric acid]
> 80	–	COc1c(Cl)cc(C(=O)N[C@@H](C)C(=O)N2CCC[C@H]2C(=O)N[C@H](C=O)CC(=O)O)cc1Cl [Example 122c, 3-({1-[2-(3,5-Dichloro-4-methoxy-benzoylamino)-propionyl]-pyrrolidine-2-carbonyl}-amino)-4-oxo-butyric acid]
50 to 80	< 10	COc1c(C)cc(C(=O)N[C@@H](C)C(=O)N2CCC[C@H]2C(=O)N[C@H](C=O)CC(=O)O)cc1C [Example 122d, 3-({1-[2-(4-Methoxy-3,5-dimethyl-benzoylamino)-propionyl]-pyrrolidine-2-carbonyl}-amino)-4-oxo-butyric acid]
< 50	–	CC(=O)Nc1ccc(C(=O)N[C@@H](C)C(=O)N2CCC[C@H]2C(=O)N[C@H](C=O)CC(=O)O)cc1Cl [Example 122f, 3-({1-[2-(4-Acetylamino-3-chloro-benzoylamino)-propionyl]-pyrrolidine-2-carbonyl}-amino)-4-oxo-butyric acid]
